Reference: patent US11739074B2, “Ras inhibitors” (Revolution Medicines, Inc., priority 2019, dated 2023)
Read-outs that look alike come from different tables or passages of the source.

Legend:
[1] = test system: AsPC-1 (K-Ras G12D); assay: Potency assay: pERK in AsPC-1 cells; type: cell-based; settings: Homo sapiens
[2] = test system: NCI-H358 (K-Ras G12C); assay: CellTiter-Glo cell viability assay, H358; type: cell-based; settings: Homo sapiens, NCI-H358, 120 h, read-out: H358 Cell Viability IC50, NCI-H358, K-Ras G12C, 5-day treatment
Summary of the method: (§1)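 Luminescent viability readout on day 5, plates first brought to room temperature for ~30 min; compounds added straight to plated RAS-mutant cells. Values expressed as percent of mean DMSO signal, curves fitted with a four-parameter logistic model.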

[3] = test system: AsPC-1 (K-Ras G12D); assay: CellTiter-Glo cell viability assay, AsPC-1; type: cell-based; settings: Homo sapiens, ASPC1, 120 h
Summary of the method: as §1

[4] = target: T1, NRAS WT (Homo sapiens, UniProt P01111+P62937); assay: Ras-Raf disruption/FRET/MOA assay, NRAS WT; type: biochemical
T1 construct: His6
Text: (§2) Disruption of B-Raf Ras-Binding Domain (BRAF^RBD) Interaction with K-Ras by Compounds of the Invention (Also Called a FRET Assay or an MOA Assay)
(§3) Note—The following protocol describes a procedure for monitoring disruption of K-Ras G12C (GMP-PNP) binding to BRAF^RBD by a compound of the invention. This protocol may also be executed substituting other Ras proteins or nucleotides, such as K-Ras G12D and K-Ras G13D.
(§4) The purpose of this biochemical assay was to measure the ability of test compounds to facilitate ternary complex formation between a nucleotide-loaded K-Ras isoform and Cyclophilin A; the resulting ternary complex disrupts binding to a BRAF^RBD construct, inhibiting K-Ras signaling through a RAF effector.
(§5) In assay buffer containing 25 mM HEPES pH 7.3, 0.002% Tween20, 0.1% BSA, 100 mM NaCl and 5 mM MgCl2, tagless Cyclophilin A, His6-K-Ras-GMPPNP, and GST-BRAF^RBD were combined in a 384-well assay plate at final concentrations of 25 μM, 12.5 nM, and 50 nM, respectively. Compound was present in plate wells as a 10-point 3-fold dilution series starting at a final concentration of 30 μM. After incubation at 25° C. for 3 hours, a mixture of anti-His Eu-W1024 and anti-GST allophycocyanin was then added to assay sample wells at final concentrations of 10 nM and 50 nM, respectively, and the reaction incubated for an additional 1.5 hours. […] Compounds that facilitate disruption of a K-Ras:RAF complex were identified as those eliciting a decrease in the TR-FRET ratio relative to DMSO control wells.

[5] = target: KRAS G13D (Homo sapiens, UniProt P01116+P62937, G13D); assay: Ras-Raf disruption/FRET/MOA assay, KRAS G13D; type: biochemical; settings: disruption of BRAF RBD binding, with Cyclophilin A; read-out: KRAS G13D FRET IC50
Summary of the method: (§6)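 TR-FRET read-out of the K-Ras:RAF complex: decreased ratio relative to DMSO indicates compound-driven cyclophilin A ternary complex formation. Compound (top 30 µM, 3-fold, 10 points), 25 µM cyclophilin A, 12.5 nM GMPPNP-loaded His6-K-Ras and 50 nM GST-BRAF RBD were incubated 3 h at 25 °C (pH 7.3), followed by Eu/APC antibodies for 1.5 h.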

[6] = target: KRAS G12S (Homo sapiens, UniProt P01116+P62937, G12S); assay: Ras-Raf disruption/FRET/MOA assay, KRAS G12S; type: biochemical; settings: disruption of BRAF RBD binding, with Cyclophilin A; read-out: KRAS G12S FRET IC50
Summary of the method: as §6

[7] = target: KRAS G13C (Homo sapiens, UniProt P01116+P62937, G13C); assay: Ras-Raf disruption/FRET/MOA assay, KRAS G13C; type: biochemical; settings: disruption of BRAF RBD binding, with Cyclophilin A; read-out: KRAS G13C FRET IC50
Summary of the method: as §6

[8] = target: KRAS G12V (Homo sapiens, UniProt P01116+P62937, G12V); assay: Ras-Raf disruption/FRET/MOA assay, KRAS G12V; type: biochemical; settings: disruption of BRAF RBD binding, with Cyclophilin A; read-out: KRAS G12V FRET IC50
Summary of the method: as §6

[9] = target: KRAS G12D (Homo sapiens, UniProt P01116+P62937, G12D); assay: Ras-Raf disruption/FRET/MOA assay, KRAS G12D; type: biochemical; settings: disruption of BRAF RBD binding, with Cyclophilin A; read-out: KRAS G12D FRET IC50
Summary of the method: as §6

[10] = target: KRAS WT (Homo sapiens, UniProt P01116+P62937); assay: Ras-Raf disruption/FRET/MOA assay, KRAS WT; type: biochemical; settings: disruption of BRAF RBD binding, with Cyclophilin A; read-out: KRAS WT FRET IC50
Summary of the method: as §6

[11] = target: KRAS G12C (Homo sapiens, UniProt P01116+P62937, G12C); assay: Ras-Raf disruption/FRET/MOA assay, KRAS G12C; type: biochemical; settings: disruption of BRAF RBD binding, with Cyclophilin A; read-out: KRAS G12C FRET IC50
Summary of the method: as §6

[12] = target: KRAS Q61H (Homo sapiens, UniProt P01116+P62937, Q61H); assay: Ras-Raf disruption/FRET/MOA assay, KRAS Q61H; type: biochemical; settings: KRAS Q61H; read-out: KRAS Q61H FRET data IC50
Text: as §2, §3, §4, §5

[13] = target: T2, NRAS G12C (Homo sapiens, UniProt P01111+P62937, G12C); assay: Ras-Raf disruption/FRET/MOA assay, NRAS G12C; type: biochemical; settings: NRAS G12C; read-out: NRAS G12C FRET data IC50
T2 construct: His6
Summary of the method: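 Disruption of Ras:RAF binding was read as a drop in TR-FRET ratio versus DMSO controls. The buffer was 25 mM HEPES pH 7.3, 0.002% Tween20, 0.1% BSA, 100 mM NaCl and 5 mM MgCl2. Compounds were tested as a 10-point 3-fold dilution series from 30 μM. Detection used 10 nM anti-His Eu-W1024 and 50 nM anti-GST allophycocyanin.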

[14] = target: T3, NRAS Q61K (Homo sapiens, UniProt P01111+P62937, Q61K); assay: Ras-Raf disruption/FRET/MOA assay, NRAS Q61K; type: biochemical; settings: NRAS Q61K; read-out: NRAS Q61K FRET data IC50
T3 construct: His6
Text: as §2, §3, §4, §5

[15] = target: T4, NRAS Q61R (Homo sapiens, UniProt P01111+P62937, Q61R); assay: Ras-Raf disruption/FRET/MOA assay, NRAS Q61R; type: biochemical; settings: NRAS Q61R; read-out: NRAS Q61R FRET data IC50
T4 construct: His6
Text: as §2, §3, §4, §5

[16] = ASPC1, AsPC-1 cells, K-Ras G12D, read-out: pERK EC50 (AsPC-1 KRAS G12D)
[17] = AsPC-1, K-Ras G12D, 5-day treatment, read-out: AsPC-1 Cell Viability IC50
[18] = NRAS WT, read-out: NRAS WT FRET data IC50

KRAS G13D, sequence (P01116 1-169 isoform P01116-2 G13D limits assumed): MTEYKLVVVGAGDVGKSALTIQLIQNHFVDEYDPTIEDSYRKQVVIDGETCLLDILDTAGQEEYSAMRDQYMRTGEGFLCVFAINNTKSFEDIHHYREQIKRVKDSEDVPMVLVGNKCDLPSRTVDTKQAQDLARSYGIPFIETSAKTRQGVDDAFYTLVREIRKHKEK
KRAS G13D, sequence (P62937 whole entry): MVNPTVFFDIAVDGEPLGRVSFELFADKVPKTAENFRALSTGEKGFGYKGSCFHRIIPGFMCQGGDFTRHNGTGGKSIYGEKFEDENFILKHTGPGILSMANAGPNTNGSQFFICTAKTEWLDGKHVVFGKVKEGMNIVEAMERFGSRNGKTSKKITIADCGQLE
KRAS G12S, sequence (P01116 1-169 isoform P01116-2 G12S limits assumed): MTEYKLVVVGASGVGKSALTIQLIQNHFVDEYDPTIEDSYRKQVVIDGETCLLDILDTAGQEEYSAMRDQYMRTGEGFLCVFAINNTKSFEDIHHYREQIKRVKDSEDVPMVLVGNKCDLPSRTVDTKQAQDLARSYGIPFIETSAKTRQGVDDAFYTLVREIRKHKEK
KRAS G12S, sequence (P62937 whole entry): as the sequence (P62937 whole entry) above
KRAS WT, sequence (P01116 1-169 isoform P01116-2 limits assumed): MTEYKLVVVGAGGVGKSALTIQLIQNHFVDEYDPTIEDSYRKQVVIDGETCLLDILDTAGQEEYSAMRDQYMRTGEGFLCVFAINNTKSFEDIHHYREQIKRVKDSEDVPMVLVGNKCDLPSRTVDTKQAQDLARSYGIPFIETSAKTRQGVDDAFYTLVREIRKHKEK
KRAS WT, sequence (P62937 whole entry): as the sequence (P62937 whole entry) above
KRAS Q61H, sequence (P01116 1-169 isoform P01116-2 Q61H limits assumed): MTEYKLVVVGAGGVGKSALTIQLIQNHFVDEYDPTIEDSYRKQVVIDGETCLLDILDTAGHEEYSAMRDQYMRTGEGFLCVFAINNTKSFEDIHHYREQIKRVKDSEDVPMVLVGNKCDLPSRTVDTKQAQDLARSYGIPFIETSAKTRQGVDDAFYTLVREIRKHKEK
KRAS Q61H, sequence (P62937 whole entry): as the sequence (P62937 whole entry) above
KRAS G12V, sequence (P01116 1-169 isoform P01116-2 G12V limits assumed): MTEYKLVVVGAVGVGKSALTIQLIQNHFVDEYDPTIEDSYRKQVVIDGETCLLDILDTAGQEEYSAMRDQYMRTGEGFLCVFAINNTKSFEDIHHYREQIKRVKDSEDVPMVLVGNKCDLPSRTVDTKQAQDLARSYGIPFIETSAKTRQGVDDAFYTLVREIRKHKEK
KRAS G12V, sequence (P62937 whole entry): as the sequence (P62937 whole entry) above
T3 sequence (P01111 whole entry Q61K): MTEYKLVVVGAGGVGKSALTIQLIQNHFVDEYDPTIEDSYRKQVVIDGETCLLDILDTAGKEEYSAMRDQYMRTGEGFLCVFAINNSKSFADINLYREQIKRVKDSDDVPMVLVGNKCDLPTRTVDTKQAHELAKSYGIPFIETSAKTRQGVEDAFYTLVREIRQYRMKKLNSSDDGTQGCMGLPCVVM
T3 sequence (P62937 whole entry): as the sequence (P62937 whole entry) above
T4 sequence (P01111 whole entry Q61R): as the sequence (P01111 whole entry Q61K) above, with K61R counted along it
T4 sequence (P62937 whole entry): as the sequence (P62937 whole entry) above
KRAS G12D, sequence (P01116 1-169 isoform P01116-2 G12D limits assumed): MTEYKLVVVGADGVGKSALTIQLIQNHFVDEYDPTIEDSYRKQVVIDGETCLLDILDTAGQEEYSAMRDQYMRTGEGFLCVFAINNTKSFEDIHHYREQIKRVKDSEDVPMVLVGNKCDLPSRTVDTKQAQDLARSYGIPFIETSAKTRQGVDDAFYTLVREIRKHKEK
KRAS G12D, sequence (P62937 whole entry): as the sequence (P62937 whole entry) above
T2 sequence (P01111 whole entry G12C): as the sequence (P01111 whole entry Q61K) above, with G12C, K61Q counted along it
T2 sequence (P62937 whole entry): as the sequence (P62937 whole entry) above
KRAS G12C, sequence (P01116 1-169 isoform P01116-2 G12C limits assumed): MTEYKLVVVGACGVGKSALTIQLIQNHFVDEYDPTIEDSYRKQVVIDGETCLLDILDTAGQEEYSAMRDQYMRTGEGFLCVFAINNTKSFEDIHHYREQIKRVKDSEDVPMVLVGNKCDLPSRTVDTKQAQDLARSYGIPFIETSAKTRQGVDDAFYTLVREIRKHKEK
KRAS G12C, sequence (P62937 whole entry): as the sequence (P62937 whole entry) above
KRAS G13C, sequence (P01116 1-169 isoform P01116-2 G13C limits assumed): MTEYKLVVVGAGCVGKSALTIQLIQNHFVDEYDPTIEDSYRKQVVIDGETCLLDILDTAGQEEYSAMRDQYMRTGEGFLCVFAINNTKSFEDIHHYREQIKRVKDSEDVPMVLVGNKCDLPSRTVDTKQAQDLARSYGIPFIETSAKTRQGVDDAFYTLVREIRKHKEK
KRAS G13C, sequence (P62937 whole entry): as the sequence (P62937 whole entry) above
T1 sequence (P01111 whole entry): as the sequence (P01111 whole entry Q61K) above, with K61Q counted along it
T1 sequence (P62937 whole entry): as the sequence (P62937 whole entry) above

For CCn1c(-c2cccnc2[C@H](C)OC)c2c3cc(ccc31)-c1cc(O)cc(c1)C[C@H](NC(=O)[C@H](C(C)C)N(C)C(=O)CN(C)C(=O)[C@@H]1CN1CCCOC(C)=O)C(=O)N1CCC[C@H](N1)C(=O)OCC(C)(C)C2 (stereo partly drawn) [Compound 267], the EC50 ([1]; ASPC1, read-out: pERK EC50 (AsPC-1 KRAS G12D)) was < 5 µM, the IC50 [2] was < 0.01 µM and the IC50 ([3]; read-out: AsPC-1 Cell Viability IC50, AsPC-1, K-Ras G12D, 5-day treatment) was 0.1 to 1 µM. It also gave an IC50 [4] of 0.01 to 0.1 µM.
With CCn1c(-c2cccnc2[C@H](C)OC)c2c3cc(ccc31)-c1cc(O)cc(c1)C[C@H](NC(=O)[C@H](C1CCCC1)N1CC[C@@]3(CCN(C(=O)[C@@H]4N[C@@H]4C4CC4)C3)C1=O)C(=O)N1CCC[C@H](N1)C(=O)OCC(C)(C)C2 [Compound 215] the EC50 [1, 16] was < 5 µM, the IC50 [3, 17] was 1 to 10 µM and the IC50 [5] was 0.1 to 1 µM. It also gave an IC50 [6] of 0.1 to 1 µM, an IC50 [7] of 0.01 to 0.1 µM and an IC50 [8] of 0.1 to 1 µM. The IC50 [9] was 0.1 to 1 µM, the IC50 [10] was 0.1 to 1 µM and the IC50 [11] was 0.01 to 0.1 µM. It also gave an IC50 [12] of 0.01 to 0.1 µM, an IC50 [13] of 0.01 to 0.1 µM and an IC50 [4, 18] of 0.1 to 1 µM. The IC50 [14] was 1 to 10 µM and the IC50 [15] was 1 to 10 µM.
CCn1c(-c2cnccc2COC)c2c3cc(ccc31)-c1cc(O)cc(c1)C[C@H](NC(=O)[C@H](C(C)C)N(C)C(=O)CN(C)C(=O)[C@@H]1CN1S(C)(=O)=O)C(=O)N1CCC[C@H](N1)C(=O)OCC(C)(C)C2 (stereo partly drawn) [Compound 37] was tested, and the IC50 ([3]; read-out: AsPC-1 Cell Viability IC50) was > 10 µM, the IC50 [5] was 0.1 to 1 µM and the IC50 [6] was 0.01 to 0.1 µM. For the same molecule, the IC50 [7] was 0.01 to 0.1 µM, the IC50 [8] was 0.1 to 1 µM and the IC50 [9] was 0.1 to 1 µM. The IC50 [10] was 0.01 to 0.1 µM, the IC50 [11] was 0.01 to 0.1 µM and the IC50 [12] was 0.01 to 0.1 µM. It also gave an IC50 [13] of 0.01 to 0.1 µM, an IC50 [4, 18] of 0.01 to 0.1 µM and an IC50 [14] of 0.1 to 1 µM. The IC50 [15] was 0.1 to 1 µM.
For CCn1c(-c2cccnc2[C@H](C)OC)c2c3cc(ccc31)-c1cc(cc(C(F)F)c1)C[C@H](NC(=O)[C@H](C1CCCC1)N1CC[C@]3(CCN(C(=O)[C@H]4CN4)C3)C1=O)C(=O)N1CCC[C@H](N1)C(=O)OCC(C)(C)C2 [Compound 233], the EC50 [1, 16] was < 5 µM, the IC50 [3, 17] was 1 to 10 µM and the IC50 [5] was 1 to 10 µM. For the same molecule, the IC50 [6] was 1 to 10 µM, the IC50 [7] was 0.1 to 1 µM and the IC50 [8] was 1 to 10 µM. For the same molecule, the IC50 [9] was 1 to 10 µM, the IC50 [10] was 1 to 10 µM and the IC50 [11] was 0.1 to 1 µM. It also gave an IC50 [12] of 0.1 to 1 µM, an IC50 [13] of 0.1 to 1 µM and an IC50 [4, 18] of 1 to 10 µM. For the same molecule, the IC50 [14] was 1 to 10 µM and the IC50 [15] was > 10 µM.
